In the METLIN SMRT retention time set (Domingo-Almenara et al. 2019):

Test: gradient 5% acetonitrile 3 min, to 50% in 2 min, to 85% in 15 min, held 3 min, 100 µL/min
Details: column: Zorbax Extend-C18 2.1 x 50 mm; eluents: water / acetonitrile, 0.1% formic acid
Outline: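 A Zorbax Extend-C18 column (2.1 × 50 mm, 1.8 μm) run at 100 μL/min with water and acetonitrile, both containing 0.1% formic acid, separated mixtures of ~100 pure standards. The HPLC was coupled to a quadrupole time-of-flight mass spectrometer operated in positive and negative ionization mode, with dead and dwell volumes of 40 μL and 900 μL. Each retention time was taken from a computationally picked adduct peak that was then manually inspected.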

Row | Structure (SMILES) | RP-LC retention time [s]
1 | Cc1cnc(C(=O)N2CCCCCCNC(=O)[C@@H]3CCCC[C@@H]32)cn1 | 694
2 | Cc1ccsc1C(=O)Nc1cccn2nc(C3CCC3)nc12 | 1030
3 | Cc1cccc(NC(=O)Cn2nc(N3CCC(C)CC3)c3ccccc3c2=O)c1 | 1160
4 | Cc1[nH]c(C(=O)N2CCCC(C(=O)NCc3ccccc3F)C2)c(C)c1C(=O)OC(C)C (centres undefined) | 860
5 | CC(C)(C)n1nnnc1C1CC2(CCOCC2)C(=O)N1Cc1cccc(C(F)(F)F)c1 (centres undefined) | 862
6 | Cn1ccc2c(cc(C(=O)NCCCc3ccccc3)n2C)c1=O | 736
7 | Cc1ccccc1CC(=O)NC1CCN(c2ccccc2)C1=O (centres undefined) | 811
8 | CCOC(=O)c1cc2n(n1)CC(C)(C(=O)NCc1ccc(C)cc1)N(C1CC1)C2=O (centres undefined) | 786
9 | Cc1occc1C(=O)NC1CCc2nn(CC3CC3)c(=O)n2CC1 (centres undefined) | 636
10 | COc1ccc(NC(=O)c2nnc(COCC(=O)N3CCN(c4ccccn4)CC3)s2)cc1 | 610
11 | COc1ccc(CC(=O)Nc2c3c(nn2-c2ccc([N+](=O)[O-])cc2)CSC3)cc1OC | 777
12 | Cn1c(C(=O)NC2CC2)cc2c1CCN(Cc1ccc(F)cc1)C2 | 590
13 | Cn1nnc2c(SCC(=O)NCc3ccco3)ncnc21 | 631
14 | Cc1ccc(-c2nc(-c3ccc4c(c3)ncn4CCC(=O)N3CCCC3)no2)s1 | 753
15 | CN[C@H]1CN(c2ccc3c(=O)c(C(=O)O)cn(-c4nccs4)c3n2)C[C@@H]1OC | 599
16 | CCOc1ccccc1N1CCN(C(=O)Cn2ccc3c(c(C)nn3-c3ccccc3)c2=O)CC1 | 844
17 | CC(C)n1c(=O)c2ccccc2n(Cc2nc(-c3cccc(Cl)c3)no2)c1=O | 1190
18 | Cc1occc1C(=O)N1CCCn2ccnc2C1C(C)C (centres undefined) | 574
19 | Cn1cc(CCN2CCN(C(=O)c3ccccc3Br)CC2)c2cccnc21 | 598
20 | Cn1cc(-c2cc3n(n2)CCC(=O)N3CC(=O)NCc2ccccn2)c2ccccc21 | 626
21 | CCn1cc(-c2nc(C)c(C(=O)Nc3cc(OC)ccc3OC)s2)c2cccnc21 | 1130
22 | COc1ccc(-c2cc3c(=O)n(Cc4ccc(C)cc4C)ccn3n2)cc1OC | 1020
23 | Cc1ccc(N2CC(c3nc(-c4ccncc4)no3)CC2=O)cc1Cl (centres undefined) | 845

Row | Structure (SMILES) | RP-LC retention time [s]
24 | O=C(Nc1ccc2c(c1)OCCO2)N1CC(c2nc(CCOCC3CC3)no2)C1 | 754
25 | CCC(C)C(NC(=O)c1cc(OC)c(OC)c(OC)c1)C(=O)Nc1nc2ccccc2[nH]1 (centres undefined) | 725
26 | COc1cc(OC)cc(C(=O)N2CCC(c3cc(N)on3)CC2)c1 | 677
27 | O=C(NCCCN1CCCC1)c1ccc2nc(Cc3ccccc3)oc2c1 | 642
28 | COc1ccc(-c2nnc3n2CCN(Cc2ccc(C)o2)C3)cc1 | 647
29 | CC(=O)c1ccc(S(=O)(=O)NCCC2CCN(C(=O)c3ccc(F)cc3)CC2)cc1 | 795
30 | O=C(Nc1cc(F)cc(F)c1)c1ccc(N2CCN(c3ccccn3)CC2)c([N+](=O)[O-])c1 | 698
31 | COCCNC(=O)c1nnc(-c2ccc(S(=O)(=O)N3CCC(C)CC3)cc2)o1 | 838
32 | CN(C)c1ccc(C(=O)Nc2cnc(N3CCCCC3)nc2)cc1 | 882
33 | CCOc1ccc(C(=O)NCc2nnc3n2CCCC3)cc1OCC | 674
34 | O=C(Nc1ncnc2c1CCC2)c1ccc(S(=O)(=O)N2CCc3ccccc3C2)cc1 | 783
35 | CCn1nccc1-c1csc(S(=O)(=O)N2CCN(c3ccccn3)CC2)c1 | 657
36 | O=C(CSc1ncccc1C(=O)O)Nc1nc(-c2ccccc2)cs1 | 822
37 | Cc1cccc(NC(=O)Cn2cnc3nc(N4CCCC(C(=O)NC5CC5)C4)sc3c2=O)c1C (centres undefined) | 688
38 | O=C(Cc1csc2nc(-c3cccc(Br)c3)cn12)NCCC1=CCCCC1 | 1050
39 | CC1=C(c2cccc(Cl)c2)S(=O)(=O)N=C1N1CCCN(C(=O)NCC(C)C)CC1 | 814
40 | Cc1ccc(CNS(=O)(=O)c2ccc3c(c2)CCCC(=O)N3)cc1 | 751
41 | O=C(Nc1ccccc1Cl)N(Cc1ccsc1)Cc1ccccn1 | 806
42 | Oc1ccc2c3c1O[C@H]1[C@@H](O)CC[C@@]4(O)C(C2)N(CC2CCC2)CCC314 (some centres undefined) | 635
43 | COCc1cnc2c(c1SCc1ccc(C)cc1)c(=O)n(C)c(=O)n2C | 1060
44 | COc1ccc(NC(=O)Cn2nc(N3CCOCC3)c3ccccc3c2=O)cc1Cl | 794
45 | COCCCNC(=O)c1nn(-c2ccc(Cl)cc2)c2c(=O)n(C)cnc12 | 716
46 | O=c1c2sccc2n(Cc2nc(-c3ccccc3)no2)c(=O)n1CCc1ccccc1 | 1130

Row | Structure (SMILES) | RP-LC retention time [s]
47 | CC(C)N(CCCNC(=O)c1cc2sccc2n1C)Cc1ccccc1 | 682
48 | COc1cccc(-c2c(C(=O)O)nnn2-c2ccc3c(c2)OCO3)c1 | 743
49 | CCC1(O)CCC12CCN(C(=O)CC1CCN(C(C)=O)CC1)CC2 (centres undefined) | 629
50 | CCOC(=O)c1sc2ncnc(N3CCc4ccccc4C3)c2c1C | 1310
51 | COc1cc(CN2C[C@@H]3C(=O)N(CCc4ccccc4)C(=O)[C@@H]3C2)cc(OC)c1 | 753
52 | CN(C(=O)c1cc2c(=O)oc3ccccc3c2n1C)c1ccccc1F | 1060
53 | C[C@@H]1COCCN1c1cc(C2(S(C)(=O)=O)CC2)nc(-c2cccc3[nH]ccc23)n1 | 775
54 | Cc1cc(C2CCCN2C(=O)Cc2c(F)cccc2Cl)no1 (centres undefined) | 829
55 | O=C(c1ccsc1)N1CCCC1c1nc(-c2ccc(F)cc2F)no1 (centres undefined) | 907
56 | O=C(O)c1ccc(OCCOc2ccccc2)cc1 | 916
57 | Cc1ccccc1NC(=O)NCC(c1cccnc1)c1cn(C)c2ccccc12 (centres undefined) | 680
58 | CCC(=O)N1CCOc2ccc(NC(=O)C3CC3)cc2C1 | 674
59 | O=C(Cn1nc2c3ccccc3ncn2c1=O)Nc1ccc(F)cc1F | 668
60 | O=C(Cc1csc2nc(-c3ccccc3)cn12)Nc1ccccc1F | 764
61 | CN(C)C(=O)c1cccc(C(=O)N(C)C)n1 | 541
62 | COc1ccc(-c2nnc(Cc3nc(-c4ccccc4C)no3)o2)cc1OC | 957
63 | CCCN1N=C(C(=O)N2CCOCC2)S(=O)(=O)c2ccc(Cl)cc21 | 809
64 | CCc1ccc(NC(=O)N2C[C@@H](F)C[C@H]2C(=O)N2CCc3ccccc3C2)cc1 | 887
65 | O=C1CN(Cc2ccccc2)[C@H]2CS(=O)(=O)C[C@H]2N1c1ccc(Br)cc1 | 845
66 | CC(NC(=O)Cc1nnc(-c2ccc3ncccc3c2)o1)c1ccccc1 (centres undefined) | 690
67 | O=c1ccc(-c2ccc3c(c2)OCO3)nn1Cc1nc(-c2ccc(F)cc2)no1 | 988
68 | O=C(c1ccc2c(c1)OCO2)N1CCN(c2cc(-c3ccc(Cl)cc3)[nH]n2)CC1 | 836
69 | CN(c1nccn2c(=O)n(CC(=O)Nc3ccc(F)c(Cl)c3)nc12)C1CCCCC1 | 819

Row | Structure (SMILES) | RP-LC retention time [s]
70 | CC(C)NC(=O)c1cccc(Nc2c(-c3ccccc3)nc3cnccn23)c1 | 719
71 | Cc1coc2c(C)c3oc(=O)c(CCC(=O)NCCc4c[nH]c5ccccc45)c(C)c3cc12 | 964
72 | Cc1oc2ncn(CC(C)C)c(=O)c2c1C(=O)N1CCN(c2ccccn2)CC1 | 568
73 | CCc1ccc(Nc2nc(C(=O)NC3CCCCC3)nc3ccccc23)cc1 | 995
74 | CCOC(=O)c1c(C)oc2nc(C)nc(NCCc3ccc(OC)c(OC)c3)c12 | 1050
75 | Cc1nc(CCNC(=O)C2CCN(S(=O)(=O)c3ccc(C4CCCCC4)cc3)CC2)cs1 | 981
76 | CCCCN(C)C(=O)C1CCCN(c2ccc(-c3ccc(C)cc3)nn2)C1 (centres undefined) | 750
77 | COc1cc(OC)c(OC)cc1CC1C(=O)Nc2ccccc21 (centres undefined) | 770
78 | Cc1cc2c(=O)n(CC(=O)Nc3ccc(Cl)cc3C)ccc2s1 | 833
79 | COc1cccc(-c2nc(-c3ccc4c(c3)nc(C)c(=O)n4C)no2)c1 | 843
80 | Cc1ccc2nc(C(=O)N3CCN(c4ccccn4)CC3)cn2c1 | 538
81 | CCC(=O)c1cn(CC(=O)NCc2cc3c(cc2OC)OCCCO3)c2ccccc12 | 837
82 | O=C(COc1ccccc1)Nc1nc(-c2ccccc2)cs1 | 1050
83 | CS(=O)(=O)N1CCN(C(=O)C2CCCN(c3ccc(-c4ccc(F)cc4)nn3)C2)CC1 (centres undefined) | 611
84 | COc1ccc(C)cc1NC(=O)C(=O)NCCc1csc(-c2ccc(Cl)cc2)n1 | 1280
85 | COc1cccc(C2Cn3nnc(-c4nc(-c5ccccc5)no4)c3CO2)c1 (centres undefined) | 1130
86 | COc1ccc(-c2csc(NC(=O)Cn3nc(C)cc3C)n2)cc1 | 842
87 | O=C(NCc1cccs1)c1ccc(-c2nccnc2N2CCCCC2)cc1 | 968
88 | c1ccc(-c2noc(-c3ccc(N4CCN(C5CCCCC5)CC4)nc3)n2)cc1 | 772
89 | Cc1noc(C)c1C1CCCN1C(=O)Cc1ccccc1F (centres undefined) | 736
